Assay results as given in article PMC6273226, “New Isoxazolidine-Conjugates of Quinazolinones—Synthesis, Antiviral and Cytostatic Activity” (Molecules, 2016).

What was measured:
[1] = test system: tobacco mosaic virus (TMV); set-up: method as in PMID 23962399; conditions: ref [30]; cited from earlier work
[2] = test system: various cancer cell lines; set-up: method as in doi:10.1002/hlca.201200433, PMID 21495659; conditions: ref [31],[32]; cited from earlier work
[3] = test system: Vero cells; set-up: method as in doi:10.1016/j.phytol.2015.02.007; conditions: ref [33]; cited from earlier work
[4] = test system: influenza A virus; set-up: method as in PMID 26017319; conditions: ref [34]; cited from earlier work

O=c1[nH]c(Cc2ccc(O)cc2)nc2ccccc12 [Compound 1, 2-(4-hydroxybenzyl)quinazolin-4(3H)-one]
inhibitory properties on the replication of tobacco mosaic virus (TMV) [1]: strong inhibitory properties | cytotoxicity toward various cancer cell lines [2]: significant cytotoxicity

O=C(c1ccc(O)cc1)c1nc2ccccc2c(=O)[nH]1 [Compound 2]
melting point: 67 to 68 °C | inhibitory properties on the replication of tobacco mosaic virus (TMV) [1]: only slightly active

O=c1[nH]c(-c2c[nH]c3ccccc23)nc2ccccc12 [Compound 3]
cytotoxicity against Vero cells [3]: cytotoxic

O=c1c2ccccc2nc(-c2ccncc2)n1CCCn1ccnc1 [Compound 6]
activity against influenza A virus [4]: slight activity
